{"source": "patent US20250312320A1", "about": "“METHOD AND TREATMENT FOR OSTEOARTHRITIS AND DISEASES OF CHONDROCYTE HYPERTROPHY” (The Royal Veterinary College, priority 2022, published 2025)", "key": {"[1]": {"tested_on": "ATDC5 micromass", "experiment": "ATDC5 micromass treated with CDK8i: qPCR gene expression and morphology", "type": "cell-based, mouse", "details": "1 μM", "experimental": "ATDC5 and primary equine chondrocytes were cultured in micromasses and treated with a CDK8i to determine effects on gene expression during chondrogenic differentiation.\nIn more detail, for ATDC5 cells, 2.7×10^5 cells were seeded in a 10 μl droplet onto a 24-well plate and cultured in differentiation media supplemented with CDK8i for 7 days before switching to mineralisation media supplemented with CDK8i for a further 7 days to induce hypertrophic differentiation as previous. The CDK8i was either 1 μM BI1347 or 100 nM MSC2530818.\nOn days 7 and 14 DMSO control and BI1347/MSC2530818 treated ATDC5 micromasses were lysed in triplicate and RNA extracted using Reliaprep RNA miniprep system (Promega) before cDNA synthesis using High-capacity reverse transcriptase kit (Applied BioScience). Quantitative PCR (qPCR) analysis was carried out using 10 ng cDNA in iTaq mastermix (BioRad) according to manufacturer's instructions. Primer sequences for qPCR reactions are shown in Table 1. ΔCt values of genes expressed were normalised to reference housekeeper genes and subsequently used to generate relative expression. Significance was observed by conducting unpaired T-test with Welch correction."}, "[2]": {"tested_on": "primary equine chondrocytes", "experiment": "Primary equine chondrocyte micromass treated with BI1347: gene expression", "type": "cell-based", "details": "1 μM", "experimental": "(§1) Articular cartilage was isolated, placed into a petri dish containing phosphate buffer saline (PBS) supplemented with 2% Ab/Am (PBS-Ab/Am) and transferred to a laminar flow hood for processing. Cartilage shavings were minced using a sterile scalpel to approximately 1 mm^3 and washed in fresh PBS-Ab/Am by centrifugation at 500×g for 10 minutes. Supernatant was removed and the cartilage pellet resuspended in 5 ml TrypLE™ (Gibco) before incubation at 37° C. for 10 minutes with gentle agitation. Dissociated cartilage fragments were pelleted and washed to remove excess TrypLE and resuspended in DMEM-complete media (DMEM/F12 (Gibco), 1% Ab/Am, 10% FBS) supplemented with 2 mg/ml Collagenase Type II and incubated overnight at 37° C. with gentle agitation. The cartilage digest was pelleted, washed and subsequently resuspended in DMEM-complete. Released cells were counted using a haematocytometer and seeded at 10,000 cells per cm^2. The cultures were incubated at 37° C., 5% CO2 in a humidified incubator for 2 days before refreshing DMEM-complete every 2 days until confluency. For differentiation experiments, primary chondrocytes were differentiated in DMEM/F12 containing 2% FBS, 1% Ab/Am, 1× Insulin-Transferrin-Selenium premix, 10 ng/ml TGFβ3 (primary chondrocyte differentiation media).\nFor primary equine chondrocytes, chondrocytes were seeded in 10 μl micromasses as above and differentiated for 14 days in presence of primary chondrocyte differentiation media supplemented with 1 μM BI1347 before processing for gene expression analysis as described above."}, "[3]": {"tested_on": "MC3T3 cells", "experiment": "MC3T3 cell viability assay (resazurin)", "type": "cell-based", "details": "1 μM, day 7 and 14", "experimental": "To determine potential toxicity of CDK8i on MC3T3 cells, a cell viability assay was carried out on day 7 and 14 of MC3T3 cells treated with 1 μM BI1347. Briefly, culture media was replaced with differentiation media containing 0.2 mM resazurin dye and incubated for 2 hours at 37° C. before measurement at 570 nm normalized to 600 nm."}, "[4]": {"tested_on": "THP-1 derived macrophages", "experiment": "LPS stimulated THP-1 derived macrophages: IL-1β ELISA of supernatant", "type": "cell-based, human", "details": "100 nM, LPS 24 hrs", "experimental": "THP-1 monocytes were differentiated into macrophages via treatment with 50 ng/ml phorbol 12-myristate 13-acetate (PMA) in THP-1 growth media (RPMI-1640, 100 μg/ml Primocin, 10% FBS, 0.05 mM β-mercaptoethanol) for 48 hours. Macrophages were then washed twice to remove PMA containing media before a 1-hour pretreatment with 1 μM BI1347 or 100 nM MSC2530818. Inflammatory stimulation was then initiated via the addition of lug/ml lipopolysaccharide (LPS) for 24 hours in the presence of 1 μM BI1347 or 100 nM MSC2530818. Gene expression analysis was subsequently carried out as previously outlined. For MSC2530818 treated/LPS stimulated cells, media supernatant was used for IL-1β cytokine analysis quantification via ELISA (PeproTech, ABTS Human IL-1β development ELISA) as per manufacturer instructions."}, "[5]": {"tested_on": "primary equine articular chondrocytes", "experiment": "Primary equine articular chondrocytes in chondrogenesis and IL1β OA disease model: gene expression", "type": "cell-based", "details": "100 nM, N=2", "experimental": "as §1\n(§2) Additional experiments were carried out on primary chondrocytes (equine, canine and human) and ihMSC (TERT immortalised human mesenchymal stromal cell line) to investigate whether CDK8i protects from IL-1β induced degradation when added throughout the entirety of differentiation/IL-1β treatment. Briefly, ihMSCs were seeded at a density of 5×10^4 cells per 10 μl micromass and differentiated in ihMSC chondrogenic media (1% FBS, 1% Ab/Am, 1× Insulin-Transferrin-Selenium premix, 10 μM Y-27632, 100 nM dexamethasone, 50 μg/ml ascorbic acid, 20 ng/ml TGF-β3 (Peprotech)). Primary chondrocytes were seeded at 2.7×10^5 cells per 10 μl micromass and differentiated in primary chondrocyte differentiation media. All micromasses were differentiated for 12 days in the presence of 100 nM […] or DMSO. Some micromasses were processed for gene expression analysis/alcian blue staining on day 12, whilst others were treated with IL-β media (1% FBS, 1% Ab/Am, 10 ng/ml IL-1B) and CDK8i for 48-hours before processing for alcian blue staining/gene expression analysis on day 14 as previously described."}, "[6]": {"tested_on": "primary human articular chondrocytes", "experiment": "Primary human articular chondrocytes in chondrogenesis and IL1β OA disease model: gene expression", "type": "cell-based", "details": "100 nM; for MATN3 gene expression, increase vs DMSO / SMOC2 gene expression, increase vs DMSO: N=1", "experimental": "as §1, §2"}}, "note": "“Also recorded” adds a separate entry of the source.", "data": [{"smiles": "CN(C)C(=O)Cn1cc(-c2ccc(-c3cncc4ccccc34)cc2)cn1", "note": "[BI1347]", "values": [{"measurement": "micromass morphology", "setting": "[1]; 14 days, vs DMSO", "result": "visible increase in extracellular matrix production; also recorded: visibly larger, more rounded and resembled the appearance of healthy cartilage"}, {"measurement": "COL2A1 expression, increase vs DMSO", "setting": "[1]; day 7", "result": 4.7, "unit": "fold"}, {"measurement": "Mediator complex gene expression vs DMSO", "setting": "[1]; day 7", "result": "robustly downregulated; also recorded: overall reduction"}, {"measurement": "ACAN expression, increase vs DMSO", "setting": "[1]; day 7 (N.S)", "result": 6, "unit": "fold"}, {"measurement": "ACAN expression, increase vs DMSO", "setting": "[1]; day 14", "result": 6, "unit": "fold"}, {"measurement": "COL10A1 expression, decrease vs DMSO", "setting": "[1]; day 14", "result": 5.3, "unit": "fold"}, {"measurement": "ACAN expression, increase vs DMSO", "setting": "[2]; day 14", "result": 14, "unit": "fold"}, {"measurement": "RUNX2 expression vs DMSO", "setting": "[2]; day 14", "result": "identical; also recorded: no increase"}, {"measurement": "SOX9 expression, increase vs DMSO", "setting": "[2]; day 14 (N.S)", "result": 1.5, "unit": "fold"}, {"measurement": "COL2A1 expression, increase vs DMSO", "setting": "[2]; day 14, N=1", "result": 9, "unit": "fold"}, {"measurement": "cell viability (resazurin) vs DMSO", "setting": "[3]", "result": "no difference in absorbance; also recorded: no toxicity observed"}]}, {"smiles": "Cc1n[nH]c2ncc(C(=O)N3CCC[C@H]3c3ccc(Cl)cc3)cc12", "note": "[MSC2530818]", "values": [{"measurement": "IL1β production / secretion into culture media, reduction", "setting": "[4]", "result": 1.5, "unit": "fold"}, {"measurement": "ADAMTS5 gene expression, reduction vs DMSO", "setting": "[5]; OA disease model (+IL1β)", "result": 2.7, "unit": "fold"}, {"measurement": "CNMD gene expression, increase vs DMSO", "setting": "[5]; OA disease model (+IL1β)", "result": 70, "unit": "fold"}, {"measurement": "COL2A1 gene expression, increase vs DMSO", "setting": "[5]; OA disease model (+IL1β)", "result": 11, "unit": "fold"}, {"measurement": "SMOC2 gene expression, increase vs DMSO", "setting": "[5]; OA disease model (+IL1β)", "result": 3, "unit": "fold"}, {"measurement": "ACAN gene expression, increase vs DMSO", "setting": "[5]; OA disease model (+IL1β), ns", "result": 1.8, "unit": "fold"}, {"measurement": "MATN3 gene expression vs DMSO", "setting": "[5]; OA disease model (+IL1β), ns", "result": 2, "unit": "fold"}, {"measurement": "TIMP4 gene expression, increase vs DMSO", "setting": "[5]; OA disease model (+IL1β), ns", "result": 1.14, "unit": "fold"}, {"measurement": "CNMD gene expression, increase vs DMSO", "setting": "[5]; chondrogenic (−IL1β)", "result": 41, "unit": "fold"}, {"measurement": "SMOC2 gene expression, increase vs DMSO", "setting": "[5]; chondrogenic (−IL1β)", "result": 2.3, "unit": "fold"}, {"measurement": "TIMP4 gene expression vs DMSO", "setting": "[5]; chondrogenic (−IL1β)", "result": "no change"}, {"measurement": "ACAN gene expression, increase vs DMSO", "setting": "[5]; chondrogenic (−IL1β), ns", "result": 2, "unit": "fold"}, {"measurement": "COL2A1 gene expression, decrease vs DMSO", "setting": "[5]; chondrogenic (−IL1β), ns", "result": 1.25, "unit": "fold"}, {"measurement": "MATN3 gene expression vs DMSO", "setting": "[5]; chondrogenic (−IL1β), ns", "result": 2, "unit": "fold"}, {"measurement": "ADAMTS5 gene expression, reduction vs DMSO", "setting": "[6]; OA disease model (+IL1β), p=0.053", "result": 2.5, "unit": "fold"}, {"measurement": "MATN3 gene expression, increase vs DMSO", "setting": "[6]; chondrogenic (−IL1β)", "result": 100, "unit": "fold"}, {"measurement": "SMOC2 gene expression, increase vs DMSO", "setting": "[6]; chondrogenic (−IL1β)", "result": 6, "unit": "fold"}, {"measurement": "MATN3 gene expression, increase vs DMSO", "setting": "[6]; disease model (+IL1β)", "result": 12, "unit": "fold"}, {"measurement": "SMOC2 gene expression, increase vs DMSO", "setting": "[6]; disease model (+IL1β)", "result": 7, "unit": "fold"}]}]}
